Test results taken from patent US8013156B2 (Exelixis, Inc., priority 2003, dated 2011).

The compounds below were run against Tie-2 (Homo sapiens, UniProt Q02763) (assay: Tie-2 tyrosine kinase activity assay (luciferase/luciferin ATP consumption with pEY substrate, or 33P-ATP incorporation)). Details: human enzyme Tie-2.
Sequence of Tie-2 (Q02763 23-1124): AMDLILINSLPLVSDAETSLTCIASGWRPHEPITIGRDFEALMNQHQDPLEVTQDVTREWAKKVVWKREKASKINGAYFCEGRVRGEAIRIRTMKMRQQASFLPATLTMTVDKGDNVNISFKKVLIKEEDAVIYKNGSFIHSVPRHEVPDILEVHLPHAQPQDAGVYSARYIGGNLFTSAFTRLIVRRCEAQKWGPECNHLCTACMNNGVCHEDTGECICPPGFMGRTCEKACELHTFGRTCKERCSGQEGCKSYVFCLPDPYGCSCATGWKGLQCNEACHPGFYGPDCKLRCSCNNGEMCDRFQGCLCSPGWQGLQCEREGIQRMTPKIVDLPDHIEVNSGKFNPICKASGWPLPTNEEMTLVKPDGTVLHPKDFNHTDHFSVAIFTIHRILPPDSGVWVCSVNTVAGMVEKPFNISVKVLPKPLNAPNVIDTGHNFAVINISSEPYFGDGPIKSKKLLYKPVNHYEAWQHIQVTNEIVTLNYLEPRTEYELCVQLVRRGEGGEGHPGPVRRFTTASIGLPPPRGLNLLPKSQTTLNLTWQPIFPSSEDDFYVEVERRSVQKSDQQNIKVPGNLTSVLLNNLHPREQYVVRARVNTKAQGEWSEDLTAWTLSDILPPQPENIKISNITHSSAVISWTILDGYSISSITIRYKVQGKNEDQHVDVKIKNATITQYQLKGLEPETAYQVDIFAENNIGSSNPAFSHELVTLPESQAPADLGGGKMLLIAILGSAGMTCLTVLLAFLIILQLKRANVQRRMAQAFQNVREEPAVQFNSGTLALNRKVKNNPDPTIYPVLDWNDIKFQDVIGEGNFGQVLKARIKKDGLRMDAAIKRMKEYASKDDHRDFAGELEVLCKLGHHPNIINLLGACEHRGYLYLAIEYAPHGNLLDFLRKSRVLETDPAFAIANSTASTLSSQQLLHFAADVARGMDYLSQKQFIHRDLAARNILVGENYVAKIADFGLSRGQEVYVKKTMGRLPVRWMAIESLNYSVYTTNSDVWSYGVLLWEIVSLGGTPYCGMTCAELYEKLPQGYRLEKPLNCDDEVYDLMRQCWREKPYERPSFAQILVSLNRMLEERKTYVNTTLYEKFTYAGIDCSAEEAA
Type: biochemical
In short: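 Values are IC50 categories (A <50 nM to D ≥10,000 nM), with Ki obtainable by fitting rates to a tight-binding model. Assay formats: 33P-ATP phosphate transfer to adsorbed generic substrate counted by scintillation, or luciferase-detected ATP depletion using pEY.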
Nc1nccc(COc2nccnc2N2CCN(C(=O)Nc3cc(C(F)(F)F)ccc3F)CC2)n1 [Example 225, 4-(3-{[(2-aminopyrimidin-4-yl)methyl]oxy}pyrazin-2-yl)-N-[2-fluoro-5-(trifluoromethyl)phenyl]piperazine-1-carboxamide] was tested, and the IC50 was under 50 nM. With CCc1cccc(NC(=O)N2CCN(c3nc(C)ccc3OCc3ccnc(N)n3)CC2)c1 [Example 227, 4-(3-{[(2-aminopyrimidin-4-yl)methyl]oxy}-6-methylpyridin-2-yl)-N-(3-ethylphenyl)piperazine-1-carboxamide] the IC50 was under 50 nM. Compound Cc1ccc(OCc2ccnc(N)n2)c(N2CCN(C(=O)Nc3cc(C(F)(F)F)cc(C(F)(F)F)c3)CC2)n1 [Example 228, 4-(3-{[(2-aminopyrimidin-4-yl)methyl]oxy}-6-methylpyridin-2-yl)-N-[3,5-bis(trifluoromethyl)phenyl]piperazine-1-carboxamide] has an IC50 of under 50 nM. In the case of Nc1nccc(COc2nccnc2N2CCN(C(=O)Nc3cccc(C(F)(F)F)c3)CC2)n1 [Example 229, 4-(3-{[(2-aminopyrimidin-4-yl)methyl]oxy}pyrazin-2-yl)-N-[3-(trifluoromethyl)phenyl]piperazine-1-carboxamide], the IC50 is reported as under 50 nM. In the case of Nc1nccc(COc2nsnc2N2CCN(C(=O)Nc3ccccc3)CC2)n1 [Example 230, 4-(4-{[(2-aminopyrimidin-4-yl)methyl]oxy}-1,2,5-thiadiazol-3-yl)-N-phenylpiperazine-1-carboxamide], the IC50 is reported as at least 10000 nM. Compound Nc1nccc(COc2nsnc2N2CCN(C(=O)Nc3cccc(C(F)(F)F)c3)CC2)n1 [Example 231, 4-(4-{[(2-aminopyrimidin-4-yl)methyl]oxy}-1,2,5-thiadiazol-3-yl)-N-[3-(trifluoromethyl)phenyl]piperazine-1-carboxamide] has an IC50 of under 50 nM. In the case of Nc1nccc(COc2nsnc2N2CCN(C(=O)Nc3cc(C(F)(F)F)ccc3F)CC2)n1 [Example 232, 4-(4-{[(2-aminopyrimidin-4-yl)methyl]oxy}-1,2,5-thiadiazol-3-yl)-N-[2-fluoro-5-(trifluoromethyl)phenyl]piperazine-1-carboxamide], the IC50 is reported as 50 to 1000 nM. CN1CCN(CC(=O)Nc2cc(COc3cccnc3N3CCN(C(=O)Nc4cc(Cl)cc(C(F)(F)F)c4)CC3)ccn2)CC1 [Example 233, N-[3-chloro-5-(trifluoromethyl)phenyl]-4-(3-{[(2-{[(4-methylpiperazin-1-yl)acetyl]amino}pyridin-4-yl)methyl]oxy}pyridin-2-yl)piperazine-1-carboxamide] showed an IC50 of under 50 nM. Work on Nc1nccc(COc2nccnc2N2CCN(C(=O)Nc3cc(Cl)cc(C(F)(F)F)c3)CC2)n1 [Example 234, 4-(3-{[(2-aminopyrimidin-4-yl)methyl]oxy}pyrazin-2-yl)-N-[3-chloro-5-(trifluoromethyl)phenyl]piperazine-1-carboxamide] yielded an IC50 of under 50 nM. In the case of Nc1nccc(COc2cccnc2N2CCN(C(=O)Nc3cc(Cl)cc(C(F)(F)F)c3)CC2)n1 [Example 235, 4-(3-{[(2-aminopyrimidin-4-yl)methyl]oxy}pyridin-2-yl)-N-[3-chloro-5-(trifluoromethyl)phenyl]piperazine-1-carboxamide], the IC50 is reported as under 50 nM. CCc1cc(Br)cc(NC(=O)N2CCN(c3nccnc3OCc3ccnc(N)n3)CC2)c1 [Example 236, 4-(3-{[(2-aminopyrimidin-4-yl)methyl]oxy}pyrazin-2-yl)-N-(3-bromo-5-ethylphenyl)piperazine-1-carboxamide] was tested, and the IC50 was under 50 nM. Work on CCc1cccc(NC(=O)N2CCN(c3nc(Cl)ccc3OCc3ccnc(N)n3)CC2)c1 [Example 237, 4-(3-{[(2-aminopyrimidin-4-yl)methyl]oxy}-6-chloropyridin-2-yl)-N-(3-ethylphenyl)piperazine-1-carboxamide] yielded an IC50 of under 50 nM. For CCc1cc(Br)cc(NC(=O)N2CCN(c3nsnc3OCc3ccnc(N)n3)CC2)c1 [Example 238, 4-(4-{[(2-aminopyrimidin-4-yl)methyl]oxy}-1,2,5-thiadiazol-3-yl)-N-(3-bromo-5-ethylphenyl)piperazine-1-carboxamide], the IC50 was under 50 nM. Work on Nc1nccc(COc2nsnc2N2CCN(C(=O)Nc3cc(F)cc(C(F)(F)F)c3)CC2)n1 [Example 239, 4-(4-{[(2-aminopyrimidin-4-yl)methyl]oxy}-1,2,5-thiadiazol-3-yl)-N-[3-fluoro-5-(trifluoromethyl)phenyl]piperazine-1-carboxamide] yielded an IC50 of under 50 nM. With Nc1nccc(COc2nsnc2N2CCN(C(=O)Nc3cc(Cl)cc(C(F)(F)F)c3)CC2)n1 [Example 240, 4-(4-{[(2-aminopyrimidin-4-yl)methyl]oxy}-1,2,5-thiadiazol-3-yl)-N-[3-chloro-5-(trifluoromethyl)phenyl]piperazine-1-carboxamide] the IC50 was under 50 nM. For CCc1cc(NC(=O)N2CCN(c3nccnc3OCc3ccnc(N)n3)CC2)ccc1F [Example 241, 4-(3-{[(2-aminopyrimidin-4-yl)methyl]oxy}pyrazin-2-yl)-N-(3-ethyl-4-fluorophenyl)piperazine-1-carboxamide], the IC50 was under 50 nM. CCc1cc(CC)cc(NC(=O)N2CCN(c3nsnc3OCc3ccnc(N)n3)CC2)c1 [Example 242, 4-(4-{[(2-aminopyrimidin-4-yl)methyl]oxy}-1,2,5-thiadiazol-3-yl)-N-(3,5-diethylphenyl)piperazine-1-carboxamide] was tested, and the IC50 was under 50 nM. In the case of CN1CCN(CC(=O)Nc2cc(COc3cccnc3N3CCN(C(=O)Nc4cc(C(F)(F)F)cc(Cl)c4F)CC3)ccn2)CC1 [Example 243, N-[3-chloro-2-fluoro-5-(trifluoromethyl)phenyl]-4-(3-{[(2-{[(4-methylpiperazin-1-yl)acetyl]amino}pyridin-4-yl)methyl]oxy}pyridin-2-yl)piperazine-1-carboxamide], the IC50 is reported as under 50 nM. Nc1nccc(COc2ccc(Cl)nc2N2CCN(C(=O)Nc3cc(C(F)(F)F)cc(C(F)(F)F)c3)CC2)n1 [Example 244, 4-(3-{[(2-aminopyrimidin-4-yl)methyl]oxy}-6-chloropyridin-2-yl)-N-[3,5-bis(trifluoromethyl)phenyl]piperazine-1-carboxamide] showed an IC50 of under 50 nM. Work on CCc1cccc(NC(=O)N2CCN(c3ncccc3OC(C)c3ccnc(N)n3)CC2)c1 (centres unmarked) [Example 245, 4-(3-{[1-(2-aminopyrimidin-4-yl)ethyl]oxy}pyridin-2-yl)-N-(3-ethylphenyl)piperazine-1-carboxamide] yielded an IC50 of under 50 nM. CCc1ccc(F)c(NC(=O)N2CCN(c3nc(Cl)ccc3OCc3ccnc(N)n3)CC2)c1 [Example 246, 4-(3-{[(2-aminopyrimidin-4-yl)methyl]oxy}-6-chloropyridin-2-yl)-N-(5-ethyl-2-fluorophenyl)piperazine-1-carboxamide] was tested, and the IC50 was under 50 nM. CCc1cc(F)cc(NC(=O)N2CCN(c3ncccc3OCc3ccnc(N)n3)CC2)c1 [Example 247, 4-(3-{[(2-aminopyrimidin-4-yl)methyl]oxy}pyridin-2-yl)-N-(3-ethyl-5-fluorophenyl)piperazine-1-carboxamide] showed an IC50 of under 50 nM. Compound Nc1nccc(COc2nsnc2N2CCN(C(=O)Nc3cc(C(F)(F)F)cc(Cl)c3F)CC2)n1 [Example 248, 4-(4-{[(2-aminopyrimidin-4-yl)methyl]oxy}-1,2,5-thiadiazol-3-yl)-N-[3-chloro-2-fluoro-5-(trifluoromethyl)phenyl]piperazine-1-carboxamide] has an IC50 of under 50 nM. Nc1nccc(COc2cccnc2N2CCN(C(=O)Nc3cc(C(F)(F)F)cc(Cl)c3F)CC2)n1 [Example 249, 4-(3-{[(2-aminopyrimidin-4-yl)methyl]oxy}pyridin-2-yl)-N-[3-chloro-2-fluoro-5-(trifluoromethyl)phenyl]piperazine-1-carboxamide] showed an IC50 of under 50 nM. For CN(C(=O)N1CCN(c2ncccc2OCc2ccnc(N)n2)CC1)c1cc(C(F)(F)F)cc(C(F)(F)F)c1 [Example 250, 4-(3-{[(2-aminopyrimidin-4-yl)methyl]oxy}pyridin-2-yl)-N-[3,5-bis(trifluoromethyl)phenyl]-N-methylpiperazine-1-carboxamide], the IC50 was under 50 nM. CC(C)c1cccc(NC(=O)N2CCN(c3nccnc3OCc3ccnc(N)n3)CC2)c1 [Example 251, 4-(3-{[(2-aminopyrimidin-4-yl)methyl]oxy}pyrazin-2-yl)-N-[3-(1-methylethyl)phenyl]piperazine-1-carboxamide] showed an IC50 of under 50 nM. Work on CCc1cc(NC(=O)N2CCN(c3nsnc3OCc3ccnc(N)n3)CC2)ccc1F [Example 252, 4-(4-{[(2-aminopyrimidin-4-yl)methyl]oxy}-1,2,5-thiadiazol-3-yl)-N-(3-ethyl-4-fluorophenyl)piperazine-1-carboxamide] yielded an IC50 of 50 to 1000 nM. In the case of Nc1nccc(COc2nsnc2N2CCN(C(=O)Nc3ccc(F)c(Cl)c3)CC2)n1 [Example 253, 4-(4-{[(2-aminopyrimidin-4-yl)methyl]oxy}-1,2,5-thiadiazol-3-yl)-N-(3-chloro-4-fluorophenyl)piperazine-1-carboxamide], the IC50 is reported as 1000 to 10000 nM. Work on COc1ccc(OC)c(NC(=O)N2CCN(c3nsnc3OCc3ccnc(N)n3)CC2)c1 [Example 254, 4-(4-{[(2-aminopyrimidin-4-yl)methyl]oxy}-1,2,5-thiadiazol-3-yl)-N-[2,5-bis(methyloxy)phenyl]piperazine-1-carboxamide] yielded an IC50 of 1000 to 10000 nM. Nc1nccc(COc2ccccc2N2CCN(C(=O)Nc3cc(C(F)(F)F)cc(C(F)(F)F)c3)CC2)n1 [Example 255, 4-(2-{[(2-aminopyrimidin-4-yl)methyl]oxy}phenyl)-N-[3,5-bis(trifluoromethyl)phenyl]piperazine-1-carboxamide] gave an IC50 of under 50 nM. For CCc1cccc(NC(=O)N2CCN(c3ccccc3OCc3ccnc(N)n3)CC2)c1 [Example 256, 4-(2-{[(2-aminopyrimidin-4-yl)methyl]oxy}phenyl)-N-(3-ethylphenyl)piperazine-1-carboxamide], the IC50 was under 50 nM. In the case of Nc1nccc(COc2nsnc2N2CCN(C(=O)Nc3cc(Cl)ccc3F)CC2)n1 [Example 257, 4-(4-{[(2-aminopyrimidin-4-yl)methyl]oxy}-1,2,5-thiadiazol-3-yl)-N-(5-chloro-2-fluorophenyl)piperazine-1-carboxamide], the IC50 is reported as 1000 to 10000 nM.
